Literature values as cited in patent US20190269627A1, “MEMANTINE COMBINATIONS AND USE” (Chase Pharmaceuticals Corporation, priority 2016, published 2019).

Tested on: mice
Details: 2 mg/kg

With `CC12CC3CC(C)(C1)CC(N)(C3)C2` [memantine, 3,5-dimethyladamantan-1-amine] as the molecule, how does the “effect on scopolamine-induced learning deficits in the water maze” value read?
Its value is “reverses scopolamine-induced learning deficits”.
